A value given as a limit tells only on which side of the number the result lay.

In the test the test system is Triple negative breast cancer cell line CAL51. The test is described as follows: Cell Titer Glo proliferation assay, CAL51. It is filed as cell-based. The following applies: Homo sapiens, CAL-51; CAL51 cell proliferation (Table 1); read-out: Act. Level. Summed up: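 CAL51 cells grown in DMEM or RPMI1640 with 10% FBS and 2 mM L-glutamine, cultured overnight, then exposed to serially diluted compound (0.2% DMSO final) for 72 h. Viability read by Cell Titer Glo luminescence.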
Background: In ATP-based viability assays light output follows the ATP content of the culture.
With `COc1nc(Nc2ccnn2C)nc2[nH]cc(-c3ccncc3)c12` [Example 401, 4-methoxy-N-(1-methyl-1H-pyrazol-5-yl)-5-(pyridin-4-yl)-7H-pyrrolo[2,3-d]pyrimidin-2-amine], the IC50 was in the range of 1000 to 10000 nM.
As to `Cc1cc(C(=O)N(C)C)ccc1Nc1nc(OC(C)C)c2c(-c3ccnc(F)c3)c[nH]c2n1` [Example 402, 4-(5-(2-fluoropyridin-4-yl)-4-isopropoxy-7H-pyrrolo[2,3-d]pyrimidin-2-ylamino)-N,N,3-trimethylbenzamide], the IC50 was under 100 nM.
With `COc1cc(C(=O)N(C)C)ccc1Nc1nc(OC(C)C)c2c(-c3ccnc(F)c3)c[nH]c2n1` [Example 403, 4-(5-(2-fluoropyridin-4-yl)-4-isopropoxy-7H-pyrrolo[2,3-d]pyrimidin-2-ylamino)-3-methoxy-N,N-dimethylbenzamide], the IC50 is under 100 nM.
Consider `COc1cc(C(=O)NC2COC2)ccc1Nc1nc(OC)c2c(-c3ccc4[nH]c(C)nc4c3)c[nH]c2n1` [Example 404, 3-methoxy-4-(4-methoxy-5-(2-methyl-1H-benzo[d]imidazol-5-yl)-7H-pyrrolo[2,3-d]pyrimidin-2-ylamino)-N-(oxetan-3-yl)benzamide], for which the IC50 lay within 100 to 400 nM.
The result for `COc1cc(C(=O)NC2COC2)ccc1Nc1nc(OC)c2c(-c3ccnnc3)c[nH]c2n1` [Example 405, 3-methoxy-4-(4-methoxy-5-(pyridazin-4-yl)-7H-pyrrolo[2,3-d]pyrimidin-2-ylamino)-N-(oxetan-3-yl)benzamide] reads 400 to 1000 nM.
The result for `COc1nc(Nc2ccc(C(=O)N(C)C3COC3)cc2C)nc2[nH]cc(-c3ccncc3)c12` [Example 406, 4-(4-methoxy-5-(pyridin-4-yl)-7H-pyrrolo[2,3-d]pyrimidin-2-ylamino)-N,3-dimethyl-N-(oxetan-3-yl)benzamide] reads 100 to 400 nM; that for `COc1nc(Nc2ccc(C(=O)N(C)C)cc2C)nc2[nH]cc(-c3ccc4nc(C)n(C)c4c3)c12` [Example 407, 4-(5-(1,2-dimethyl-1H-benzo[d]imidazol-6-yl)-4-methoxy-7H-pyrrolo[2,3-d]pyrimidin-2-ylamino)-N,N,3-trimethylbenzamide], 100 to 400 nM; that for `COc1cc(C(=O)N(C)C)ccc1Nc1nc(OC)c2c(-c3ccc4c(C)noc4c3)c[nH]c2n1` [Example 408, 3-methoxy-4-(4-methoxy-5-(3-methylbenzo[d]isoxazol-6-yl)-7H-pyrrolo[2,3-d]pyrimidin-2-ylamino)-N,N-dimethylbenzamide], 100 to 400 nM.
In the case of `COc1nc(Nc2ccc(C(=O)N(C)C)cc2C)nc2[nH]cc(-c3ccnc(F)c3)c12` [Example 409, 4-(5-(2-fluoropyridin-4-yl)-4-methoxy-7H-pyrrolo[2,3-d]pyrimidin-2-ylamino)-N,N,3-trimethylbenzamide], the IC50 lay within 400 to 1000 nM.
In the case of `COc1nc(Nc2ccc(C(=O)N(C)C)cc2C)nc2[nH]cc(-c3ccc4c(c3)nc(C)n4C)c12` [Example 410, 4-(5-(1,2-dimethyl-1H-benzo[d]imidazol-5-yl)-4-methoxy-7H-pyrrolo[2,3-d]pyrimidin-2-ylamino)-N,N,3-trimethylbenzamide], the IC50 fell in the range of 1000 to 10000 nM.
As to `COc1nc(Nc2ccc(C(=O)N(C)C)cc2C)nc2[nH]cc(-c3ccc(S(C)(=O)=O)cc3)c12` [Example 411, 4-(4-methoxy-5-(4-(methylsulfonyl)phenyl)-7H-pyrrolo[2,3-d]pyrimidin-2-ylamino)-N,N,3-trimethylbenzamide], the IC50 was 1000 to 10000 nM.
Regarding `COc1cc(C(=O)N(C)C)ccc1Nc1nc(OC)c2c(-c3ccnc(F)c3)c[nH]c2n1` [Example 412, 4-(5-(2-fluoropyridin-4-yl)-4-methoxy-7H-pyrrolo[2,3-d]pyrimidin-2-ylamino)-3-methoxy-N,N-dimethylbenzamide], the IC50 fell in the range of 400 to 1000 nM.
The result for `COc1cc(C(=O)N(C)C2COC2)ccc1Nc1nc(OC)c2c(-c3ccnc(F)c3)c[nH]c2n1` [Example 413, 4-(5-(2-fluoropyridin-4-yl)-4-methoxy-7H-pyrrolo[2,3-d]pyrimidin-2-ylamino)-3-methoxy-N-methyl-N-(oxetan-3-yl)benzamide] reads 100 to 400 nM.

These data come from patent US9795607B2, “Substituted pyrrolopyrimidine compounds, compositions thereof, and methods of treatment therewith” (Signal Pharmaceutical, LLC, priority 2013, dated 2017).
